# Tests used:
# p-IκBα = assay: Western blot of IκBα phosphorylation after TNF-α; type: cell-based; details: 10 ng/ml TNF-α, 0, 5 and 10 min; 100 μM compound
# Protocol: (§1) To confirm that the NBD mimetics reduce IKK activity, the extent of phosphorylation of the IKK target, IκBα, in response to 10 ng/ml of TNF-α was determined by Western blot at 0, 5 and 10 min after TNF-α stimulation. […] To determine if the mimetics also reduce NF-κB DNA binding activity, electrophoretic mobility shift assay (EMSA) was conducted both in vivo and in vitro.
# HEK293 cells grown in a 6-well plate at 1×10^6 cells/well were left untreated or treated with 100 μM of ZINC12909780 or ZINC3369392 for 30 min, followed by 10 ng/ml of TNFα for 0, 5 and 10 min. Cells were then harvested for western blot. Cell lysate was prepared in RIPA buffer (20 mM Tris-HCl (pH 7.5), 150 mM NaCl, 1 mM Na^2EDTA, 1 mM EGTA, 1% NP-40, 1% sodium deoxycholate, 2.5 mM sodium pyrophosphate, 1 mM beta-glycerophosphate, 1 mM Na3VO4, 1 μg/ml leupeptin, 1× protease inhibitor cocktails (sigma) and 1× Halt phosphatase inhibitor cocktail (Thermo)). 30 ug of protein was resolved by MINI-PROTEAN TGX 4-15% SDS-PAGE. Blots were blocked in 5% non-fat milk. Primary antibodies were incubated at 4° C. overnight and secondary antibodies were incubated at room temperature for 1 hour. Anti-p-IκBα (1:1000 CST) and anti-IκBα (1:2000 CST) were used to assess NF-κB activation. Anti-GAPDH (1:5000 CST) was used as a loading control.
# [1] = Degradation in the presence of serum; type: in vitro ADME; details: data not shown
# NF-κB [2] = assay: EMSA of NF-κB DNA binding in skeletal muscle of mdx mice after acute treatment; type: in vivo, mouse; details: single ip injection at 10 mg/kg, 1 and 2 hours post-treatment
# Protocol: We also tested the compounds for their ability to inhibit NF-κB activity acutely in a murine model of disease. For these experiments, a mouse model of Duchenne muscular dystrophy, which has elevated NF-κB activity in muscle, was treated with Zinc-13 (NBDA-1) and Zinc-5 (NBDA-2) and the level of NF-κB activity determined by gel shift analysis at 1 and 2 hours post-treatment.
# as §1
# (§2) Cytoplasmic and nuclear fractions were extracted using the NE-PER nuclear and cytoplasmic extraction reagents (ThermoFisher) according to the manufacturer's instructions. The gel shift assay was performed by following the previously described method (41). In brief, 5 μg of nuclear extract was incubated with gel shift binding buffer and an α-^32P-deoxycytodine triphosphate-radiolabeled NF-κB probe for 20 min at room temperature (MP Biomedicals). The oligonucleotide sequences are as follows: NF-κB template, 5′-[…]-3′; NF-κB annealing, 5′-[…]-3′. The reaction product was separated on a 6% non-denaturing polyacrylamide gel.
# NF-κB [3] = assay: Firefly luciferase NF-κB reporter assay in TNF-α-stimulated HEK293 cells; type: cell-based; details: for inhibition of TNF-α-induced NF-κB activation (luciferase reporter), in words: 293 NF-κB luciferase reporter cells, 10 ng/ml TNF-α, compound 12909780 at 100 μM
# Protocol: This model was used to screen a subset of the drug-like ZINC 8.0 database set (˜900,000 compounds) (Irwin et al., 2005). We were able to identify 161 hits that matched at least 6 features out of eight of the pharmacophore model. […] Two compounds termed NBDA-1 (Zinc-13) and NBDA-2 (Zinc-5), successfully passed these filters (See FIG. 4) and were purchased for biological testing. The compounds were then tested for ability to inhibit TNF-alpha-mediated induction of NF-κB activity in a 293 cells stably modified with a NF-κB luciferase reporter.
# The activation of NF-κB was then quantitated by measuring the level of luciferase activity. […] Also, protein extracts were prepared from the same cells and the level of phospho-IkB determined, a marker of IKK activity.
# To test if the small molecules identified by the in silico screen inhibit NF-κB activation, a HEK293 cell line stably expressing a luciferase reporter driven by a synthetic, NF-κB-dependent promoter was utilized. To induce NF-κB activation, cells were treated with 10 ng/ml of TNF-α and harvested three hours post-treatment for analysis of luciferase activity. […] To determine if compound 12909780 inhibited NF-κB in a dose dependent manner, concentrations were tested at 0, 6.25, 25, 50 and 100 μM.
# HEK293 cells stably transfected with luciferase reporter plasmid driven by NF-κB were seeded in 96-well plate in triplicate and pretreated with DMSO or varying small molecules at indicated concentration for 30 min, followed by the stimulation of 10 ng/ml of TNFα for 3 hr. Cell were washed with PBS once and harvested in passive lysis buffer. Luciferase assay (Promega) was performed using a luminometer according to the manufacturer's instructions.
# [4] = target: T1, IKK complex (IKKß, IKKα and NEMO) (Homo sapiens, UniProt Q9Y6K9); assay: Co-immunoprecipitation of NEMO with IKKß in 293 cells; type: cell-based; details: Zinc-5 at 4 hours, Zinc-13 at 1 hour, NBD peptide at 4 hours
# T1 construct: analyzed by Western blot for the level of co-precipitated NEMO; endogenous in cells; host or cells: 293 (HEK293) cells
# Source text: FIG. 8 is a bar graph showing the inhibition of TNFα by NBDA-1 (Zinc-13). […] In addition, we have examined the ability of the compounds to disrupt the IKK complex, comprised of IKKß, IKKα and NEMO.
# A non-functional, related compound Zinc-7 had no effect.
# NF-κB [5] = assay: EMSA of NF-κB DNA binding in C2C12 cells; type: cell-based, mouse; details: 200 μM
# Protocol: as §1, §2
# mdx mice = assay: Chronic treatment of mdx mice (Duchenne muscular dystrophy model); type: in vivo, mouse; details: chronic treatment with the ZINC compounds
# Source text: Mdx mice develop normally at birth, and then undergo a massive myonecrosis starting at three weeks. Treatment of mdx mice with IKK/NF-kB inhibitors effectively reduces inflammation, block necrosis and increase muscle regeneration. Mdx mice were chronically treated with vehicle, SR12343, SR12460 or 8K-NBD starting from day 21, 3 times/week for 4 weeks. […] To determine if SR12343 and SR12460 improve muscle pathology, tibialis anterior (TA) muscle was stained with hematoxylin and eosin (H&E) to assess inflammatory infiltration, necrosis, central nucleation and fibrosis. […] Fiber size in centrally nucleated and non-centrally nucleated myofibers was also smaller in mice treated with SR12343 and 8K-NBD, indicating active reconstruction of myofiber during the regenerative phase.
# To determine muscle strength post-treatment, grip strength test on forelimbs was performed 2 weeks and 4 weeks post-treatment.
# HEK293 cells were grown in Dulbecco's Modification of Eagles Medium (with 4.5 g/L glucose and L-glutamine), supplemented with 10% fetal bovine serum, penicillin and streptomycin. Raw264.7 cells were cultured in RPMI-1640 media containing 10% heat-inactivated fetal bovine serum, penicillin and streptomycin. C57BL/10ScSn-Dmd^mdx/J and female C57BL/6 mice were purchased from the Jackson Laboratory. Mice were housed in the animal facilities of Scripps Fla. under constant temperature and humidity. Animal protocols used in this study were approved by Scripps Fla. Institutional Animal Care and Use Committees. Three week-old sex-matched mdx mice were dosed with SR12343 (30 mg/kg), […] (30 mg/kg), 8K-NBD peptide (10 mg/kg) or vehicle by intraperitoneal (i.p.) injection 3 times per week for 4 weeks. Mice were sacrificed at 7 weeks of age by carbon dioxide inhalation and tibialis anterior was collected for histological analysis.
# Seven week-old treated or untreated mdx mice were measured for forelimb grip strength using a digital grip strength meter paired with a metal grid (Bioseb). Mice were allowed to grip the metal grid tightly and readings were obtained by gently pulling the tail backward until release. Five sequential measurements were performed and the average force was calculated.
# Tissues fixed in 10% neutral buffered formalin (NBF) overnight were imbedded in paraffin. Tissue was sectioned at […] using a microtome. H&E staining was conducted following a standard protocol (REF).
# HEK293 cells = assay: MTT cell viability assay; type: cell-based
# Protocol: To identify NBD mimetics with higher biological activity than compound 12909780 or the NBD peptide, we next screened the ZINC 10.0 database (approximately 3.5 million compounds) in silico for structurally similar compounds (24).
# Cell viability was calculated by normalizing values to untreated control.
# T1 sequence (Q9Y6K9 whole entry, one chain of several): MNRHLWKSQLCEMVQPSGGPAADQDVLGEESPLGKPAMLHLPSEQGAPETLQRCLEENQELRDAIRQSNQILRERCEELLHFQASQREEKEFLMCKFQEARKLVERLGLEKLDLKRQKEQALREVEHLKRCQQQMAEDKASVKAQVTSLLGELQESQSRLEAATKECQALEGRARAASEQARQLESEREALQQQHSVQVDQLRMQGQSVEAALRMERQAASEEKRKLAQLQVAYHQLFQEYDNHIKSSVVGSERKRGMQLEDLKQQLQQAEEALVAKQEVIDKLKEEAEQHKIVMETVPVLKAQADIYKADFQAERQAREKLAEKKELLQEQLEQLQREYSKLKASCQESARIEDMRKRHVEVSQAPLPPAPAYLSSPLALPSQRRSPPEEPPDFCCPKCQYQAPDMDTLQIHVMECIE
smiles,measurement,setting,value
"O=C(COC(=O)Cc1ccccc1F)Nc1ccc(Cl)cn1 [ZINC5, 2-(2-fluorophenyl)acetic-acid-[2-[(5-chloro-2-pyridyl)amino]-2-keto-ethyl]-ester]",level of phospho-IκBα / phosphorylation of IkB,p-IκBα,reduced the level of p-IκBα dramatically
same,degradation in the presence of serum,[1],rapid degradation in the presence of serum
same,NF-κB DNA binding activity in quadriceps of mdx mice,NF-κB [2]; 10 mg/kg,inhibited NF-κB DNA binding activity in quadriceps
same,NF-κB DNA binding activity in quadriceps of mdx mice,"NF-κB [2]; listed as Zinc-5, 10 mg/kg",reduced NF-κB DNA binding activity in the skeletal muscle (quadricep)
same,"dose-dependent inhibition of TNF-α-induced NF-κB activation, in words","NF-κB [3]; 0, 6.25, 25, 50 and 100 μM",greater extent of inhibitory effect compared to compound 12909780
same,"inhibition of TNF-α-induced NF-κB activation (luciferase reporter), in words",NF-κB [3]; listed as Zinc5,lowered NF-κB activity robustly
same,"inhibition of TNF-α-induced NF-κB activation (luciferase reporter), in words",NF-κB [3]; listed as Zinc-5,"able to inhibit TNF-alpha mediated activation of NF-κB, as or more efficiently as the NBD peptide"
same,level of NEMO co-immunoprecipitated with IKKß,[4],reduced the level of co-immunoprecipitated NEMO
same,TNFα-induced NF-κB DNA binding activity (EMSA),NF-κB [5],significantly decreased TNFα-induced NF-κB DNA binding activity
same,therapeutic benefit of chronic treatment of mdx mice,mdx mice,showed no therapeutic benefit
same,cell death / toxicity (MTT assay),"HEK293 cells; HEK293, 24 hours",less than 10%
same,"cell toxicity, in words",HEK293 cells; at 50 and 100 μM,no cell toxicity observed

# — US10758522B2, “Small molecule analogs of the nemo binding peptide” (THE SCRIPPS RESEARCH INSTITUTE, priority 2015, dated 2020)
